Reference: patent publication US5834032A, “Compositions and methods for treating diabetes” (priority 1997, dated 1998)

Tests used:
Assay type in all cases: in vivo, rat
diabetic rats [1] = assay: Optimizing the level of C-Hispro intake for improving diabetes (blood glucose); details: for Mean mg glucose/dL after Tmt / Mean mg glucose/dL before Tmt: 10 mg Zn/L in drinking water; for Changes of mg glucose/dL: 10 mg Zn/L, decrease
Description: The results presented in Table 9 were used to determine the optimal concentration of C-Hispro useful for improving the symptoms associated with diabetes. Since rats consuming water containing C-Hispro ad libitum also consumed the lowest water volume as evidenced by the results in Table 8, the optimal concentration of C-Hispro for improving the symptoms of diabetes was determined by providing animals with water containing different concentrations of c-Hispro. The amounts of consumed were determined by measuring the amount of water consumed, dividing this value by the weight of the rat and multiplying the result by the c-Hispro concentration. The amount of C-Hispro intake for the most dramatic improvement of symptoms of diabetes was about 300 μg/kg/day, based on the results presented in Tables 9 and 10. […] Similar ranges of dosages also are expected to be useful for treating diabetic mammals, including humans.

diabetic rats [2] = assay: Water consumption by diabetic rats during administration of chemicals in drinking water (Example 2); details: Table 8
Excerpt: (§1) Rats were first made diabetic by injection with streptozotocin, and then allowed to stabilize for a period of two weeks. […] After the two week period, the surviving diabetic rats were divided into seven groups and provided either with plain drinking water as a control, or drinking water containing one of six compositions to be tested for their effects on various parameters associated with the diabetic condition. Constituents included in these compositions, in varying combinations, were: zinc (20 mg/L); L-histidine (20 mg/L); arachidonic acid (100 mg/L); testosterone (100 mg/L); and C-Hispro (10 mg/L).
(§2) Diabetic rats receiving one of the six test compositions or control drinking water were monitored for blood glucose concentration, body weight and water consumption over a period of about one month. Values for these parameters were plotted on a graph, and a regression line drawn. […] Thus, if the blood glucose concentration increased substantially steadily over the course of the experiment, the slope of the regression line was reported along with the number of days duration during which the change was monitored.

diabetic rats [3] = assay: Blood glucose in diabetic rats administered arachidonic acid and 0.5 mg/kg/day L-histidine (dose optimisation)
Description: In the experiment used to produce the results presented in Table 11, the concentration of AA was varied and the L-histidine concentration was held constant. Thus, a range of from 3-30 mg/kg/day of AA provided a therapeutic benefit, with a range of from 10-12 mg/kg/day of AA providing the greatest benefit.

diabetic rats [4] = assay: Blood glucose concentration changes (regression slope) during dietary feeding of defined chemical species (Example 2); details: Table 6
Excerpt: as §1, §2

[5] = C-Hispro intake 217 to 231 μg/kg, restricted water intake
[6] = C-Hispro intake 281 to 290 μg/kg, unrestricted water intake
[7] = C-Hispro intake 303 to 337 μg/kg, restricted water intake
[8] = C-Hispro intake 386 to 466 μg/kg, unrestricted water intake
[9] = C-Hispro intake 448 to 463 μg/kg, restricted water intake
[10] = C-Hispro intake 452 to 554 μg/kg, unrestricted water intake
[11] = C-Hispro intake 554 to 597 μg/kg, restricted water intake
[12] = C-Hispro intake 569 to 680 μg/kg, unrestricted water intake
[13] = arachidonic acid 0 mg/kg/day, 0.5 mg/kg/day L-histidine
[14] = arachidonic acid 2.02 to 2.39 mg/kg/day, plus 0.5 mg/kg/day L-histidine
[15] = arachidonic acid 3.04 to 3.58 mg/kg/day, plus 0.5 mg/kg/day L-histidine
[16] = arachidonic acid 4.05 to 4.78 mg/kg/day, plus 0.5 mg/kg/day L-histidine
[17] = arachidonic acid 5.06 to 5.97 mg/kg/day, plus 0.5 mg/kg/day L-histidine
[18] = arachidonic acid 10.12 to 11.95 mg/kg/day, plus 0.5 mg/kg/day L-histidine
[19] = arachidonic acid 15.18 to 17.91 mg/kg/day, plus 0.5 mg/kg/day L-histidine
[20] = arachidonic acid 20.24 to 23.88 mg/kg/day, plus 0.5 mg/kg/day L-histidine
[21] = arachidonic acid 25.30 to 29.85 mg/kg/day, plus 0.5 mg/kg/day L-histidine

SMILES: O=C1N[C@@H](Cc2cnc[nH]2)C(=O)N2CCC[C@@H]12 [C-Hispro, cyclo-Hispro]
- Mean mg glucose/dL after Tmt (diabetic rats [1]; [5]): 213 ± 43 mg glucose/dL
- Mean mg glucose/dL before Tmt (diabetic rats [1]; [5]): 372 ± 33 mg glucose/dL
- Changes of mg glucose/dL (diabetic rats [1]; [5]): 159 ± 45 mg glucose/dL
- Mean mg glucose/dL after Tmt (diabetic rats [1]; [6]): 258 ± 27 mg glucose/dL
- Mean mg glucose/dL before Tmt (diabetic rats [1]; [6]): 373 ± 30 mg glucose/dL
- Changes of mg glucose/dL (diabetic rats [1]; [6]): 115 ± 33 mg glucose/dL
- Mean mg glucose/dL after Tmt (diabetic rats [1]; [7]): 192 ± 28 mg glucose/dL
- Mean mg glucose/dL before Tmt (diabetic rats [1]; [7]): 422 ± 27 mg glucose/dL
- Changes of mg glucose/dL (diabetic rats [1]; [7]): 230 ± 14 mg glucose/dL
- Mean mg glucose/dL after Tmt (diabetic rats [1]; [8]): 353 ± 37 mg glucose/dL
- Mean mg glucose/dL before Tmt (diabetic rats [1]; [8]): 411 ± 22 mg glucose/dL
- Changes of mg glucose/dL (diabetic rats [1]; [8]): 58 ± 47 mg glucose/dL
- Mean mg glucose/dL after Tmt (diabetic rats [1]; [9]): 216 ± 23 mg glucose/dL
- Mean mg glucose/dL before Tmt (diabetic rats [1]; [9]): 342 ± 20 mg glucose/dL
- Changes of mg glucose/dL (diabetic rats [1]; [9]): 126 ± 34 mg glucose/dL
- Mean mg glucose/dL after Tmt (diabetic rats [1]; [10]): 367 ± 47 mg glucose/dL
- Mean mg glucose/dL before Tmt (diabetic rats [1]; [10]): 417 ± 8 mg glucose/dL
- Changes of mg glucose/dL (diabetic rats [1]; [10]): 50 ± 41 mg glucose/dL
- Mean mg glucose/dL after Tmt (diabetic rats [1]; [11]): 221 ± 12 mg glucose/dL
- Mean mg glucose/dL before Tmt (diabetic rats [1]; [11]): 314 ± 24 mg glucose/dL
- Changes of mg glucose/dL (diabetic rats [1]; [11]): 93 ± 32 mg glucose/dL
- Mean mg glucose/dL after Tmt (diabetic rats [1]; [12]): 314 ± 20 mg glucose/dL
- Mean mg glucose/dL before Tmt (diabetic rats [1]; [12]): 359 ± 46 mg glucose/dL
- Changes of mg glucose/dL (diabetic rats [1]; [12]): 45 ± 16 mg glucose/dL
- amount of C-Hispro intake for the most dramatic improvement of symptoms of diabetes (diabetic rats [1]; based on Tables 9 and 10): about 300 μg/kg/day
- water consumption compared to the other groups (diabetic rats [2]): lower than in the other groups tested

SMILES: N[C@@H](Cc1c[nH]cn1)C(=O)O [L-Histidine, L-histidine]
- effect of L-histidine in the drinking water on diabetes (diabetic rats [3]; 0.5 mg/kg L-histidine): improved diabetes
- mg glu/dL Post-Treatment (diabetic rats [3]; [13]): 304 ± 50 mg glu/dL
- mg glu/dL Pre-Treatment (diabetic rats [3]; [13]): 204 ± 22 mg glu/dL
- mg glu/dL improvement (diabetic rats [3]; arachidonic acid 0 mg/kg/day, 0.5 mg/kg/day L-histidine, negative = increase): -100 ± 62 mg glu/dL

SMILES: CCCCC/C=C\C/C=C\C/C=C\C/C=C\CCCC(=O)O [arachidonic acid]
- range of AA providing the greatest benefit (diabetic rats [3]; L-histidine held constant): 10 to 12 mg/kg/day
- range of AA that provided a therapeutic benefit (diabetic rats [3]; L-histidine held constant): 3 to 30 mg/kg/day
- optimal amount of AA for improving the symptoms of diabetes in rats (diabetic rats [3]; L-histidine held constant (0.5 mg/kg/day)): about 10 mg/kg/day
- mg glu/dL Post-Treatment (diabetic rats [3]; [14]): 321 ± 34 mg glu/dL
- mg glu/dL Pre-Treatment (diabetic rats [3]; [14]): 263 ± 48 mg glu/dL
- mg glu/dL improvement (diabetic rats [3]; [14]): -58 ± 16 mg glu/dL
- mg glu/dL Post-Treatment (diabetic rats [3]; [15]): 256 ± 25 mg glu/dL
- mg glu/dL Pre-Treatment (diabetic rats [3]; [15]): 303 ± 23 mg glu/dL
- mg glu/dL improvement (diabetic rats [3]; [15]): 47 ± 26 mg glu/dL
- mg glu/dL Post-Treatment (diabetic rats [3]; [16]): 247 ± 32 mg glu/dL
- mg glu/dL Pre-Treatment (diabetic rats [3]; [16]): 308 ± 17 mg glu/dL
- mg glu/dL improvement (diabetic rats [3]; [16]): 61 ± 43 mg glu/dL
- mg glu/dL Post-Treatment (diabetic rats [3]; [17]): 252 ± 29 mg glu/dL
- mg glu/dL Pre-Treatment (diabetic rats [3]; [17]): 426 ± 56 mg glu/dL
- mg glu/dL improvement (diabetic rats [3]; [17]): 174 ± 53 mg glu/dL
- mg glu/dL Post-Treatment (diabetic rats [3]; [18]): 187 ± 15 mg glu/dL
- mg glu/dL Pre-Treatment (diabetic rats [3]; [18]): 393 ± 23 mg glu/dL
- mg glu/dL improvement (diabetic rats [3]; [18]): 206 ± 25 mg glu/dL
- mg glu/dL Post-Treatment (diabetic rats [3]; [19]): 184 ± 16 mg glu/dL
- mg glu/dL Pre-Treatment (diabetic rats [3]; [19]): 368 ± 25 mg glu/dL
- mg glu/dL improvement (diabetic rats [3]; [19]): 184 ± 30 mg glu/dL
- mg glu/dL Post-Treatment (diabetic rats [3]; [20]): 241 ± 18 mg glu/dL
- mg glu/dL Pre-Treatment (diabetic rats [3]; [20]): 379 ± 25 mg glu/dL
- mg glu/dL improvement (diabetic rats [3]; [20]): 138 ± 33 mg glu/dL
- mg glu/dL Post-Treatment (diabetic rats [3]; [21]): 301 ± 27 mg glu/dL
- mg glu/dL Pre-Treatment (diabetic rats [3]; [21]): 443 ± 52 mg glu/dL
- mg glu/dL improvement (diabetic rats [3]; [21]): 142 ± 66 mg glu/dL

SMILES: C[C@]12CC[C@H]3[C@@H](CCC4=CC(=O)CC[C@@]43C)[C@@H]1CC[C@@H]2O [testosterone]
- benefit of including testosterone in the composition (diabetic rats [4]): no apparent benefit
